Source: ChEMBL document CHEMBL1201862, “PubChem BioAssay data set” (2004)
Activity calls are given as the source filed them.

How the values were obtained:
[1] = viability of uninfected HEp-2 cells – cell-based, HTS, cytotoxicity control for RSV inhibitor project, dose response (AID 2410); assay type: functional; details: human respiratory syncytial virus
[2] = molecular target: T1, Replicative DNA helicase DnaB (Mycobacterium tuberculosis, UniProt P9WMR3); assay: DnaB intein splicing inhibitors, dose response, biochemical, cell-free fluorescence (AID 449749); assay type: functional
T1 sequence (P9WMR3 whole entry): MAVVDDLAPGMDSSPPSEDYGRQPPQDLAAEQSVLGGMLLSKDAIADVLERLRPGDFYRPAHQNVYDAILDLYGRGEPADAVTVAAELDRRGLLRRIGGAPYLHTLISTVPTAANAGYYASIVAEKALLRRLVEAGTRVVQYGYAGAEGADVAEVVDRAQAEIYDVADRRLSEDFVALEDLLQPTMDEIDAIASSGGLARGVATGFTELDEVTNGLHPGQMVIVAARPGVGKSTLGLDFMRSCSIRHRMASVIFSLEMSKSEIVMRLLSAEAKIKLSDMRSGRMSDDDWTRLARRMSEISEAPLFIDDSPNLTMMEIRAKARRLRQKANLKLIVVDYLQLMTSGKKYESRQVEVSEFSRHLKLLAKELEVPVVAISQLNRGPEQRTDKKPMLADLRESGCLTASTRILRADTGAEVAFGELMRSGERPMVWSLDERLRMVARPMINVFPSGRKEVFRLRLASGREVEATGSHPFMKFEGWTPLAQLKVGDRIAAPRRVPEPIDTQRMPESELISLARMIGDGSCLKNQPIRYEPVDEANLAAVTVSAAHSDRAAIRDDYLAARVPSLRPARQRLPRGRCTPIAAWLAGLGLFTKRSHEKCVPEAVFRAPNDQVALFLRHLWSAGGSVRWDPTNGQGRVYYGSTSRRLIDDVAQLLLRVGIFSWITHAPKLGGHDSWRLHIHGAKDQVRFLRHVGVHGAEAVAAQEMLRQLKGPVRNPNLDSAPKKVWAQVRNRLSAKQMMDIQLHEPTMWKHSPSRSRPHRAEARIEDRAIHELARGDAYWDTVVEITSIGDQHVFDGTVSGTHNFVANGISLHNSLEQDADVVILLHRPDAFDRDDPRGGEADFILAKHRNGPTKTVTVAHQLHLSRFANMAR

[3] = molecular target: T2, Protein RecA (Mycobacterium tuberculosis, UniProt P9WHJ3); assay: Fluorescence Cell-Free Homogeneous Dose Retest to Identify Inhibitors of RecA-Intein Splicing Activity. [Related pubchem assays (depositor defined):AID2097, AID2223, AID489010, AID492950]; assay type: functional
T2 sequence (P9WHJ3 whole entry): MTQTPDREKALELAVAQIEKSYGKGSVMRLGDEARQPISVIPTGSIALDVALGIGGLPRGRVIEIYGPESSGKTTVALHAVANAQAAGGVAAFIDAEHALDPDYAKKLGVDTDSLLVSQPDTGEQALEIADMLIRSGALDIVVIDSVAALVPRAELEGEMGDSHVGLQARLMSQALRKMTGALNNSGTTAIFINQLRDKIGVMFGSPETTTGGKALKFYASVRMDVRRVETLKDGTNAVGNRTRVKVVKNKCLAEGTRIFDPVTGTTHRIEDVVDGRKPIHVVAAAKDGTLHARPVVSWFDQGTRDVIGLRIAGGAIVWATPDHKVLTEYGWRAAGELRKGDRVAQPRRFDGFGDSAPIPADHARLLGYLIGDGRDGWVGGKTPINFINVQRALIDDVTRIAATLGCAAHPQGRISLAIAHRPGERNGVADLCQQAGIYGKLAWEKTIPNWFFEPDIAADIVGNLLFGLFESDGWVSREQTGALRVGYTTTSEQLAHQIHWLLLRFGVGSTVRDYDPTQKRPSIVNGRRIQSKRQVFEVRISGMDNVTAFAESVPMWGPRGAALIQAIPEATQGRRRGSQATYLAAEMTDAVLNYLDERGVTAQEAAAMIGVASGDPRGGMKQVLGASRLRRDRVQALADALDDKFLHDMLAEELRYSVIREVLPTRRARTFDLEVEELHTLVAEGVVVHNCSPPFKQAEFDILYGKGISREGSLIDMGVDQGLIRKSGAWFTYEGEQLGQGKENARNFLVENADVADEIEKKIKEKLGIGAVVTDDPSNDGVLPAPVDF

[4] = molecular target: Cytochrome P450 2D6 (Homo sapiens, UniProt P10635);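 note: CYP2D6 member of a cytochrome P450 panel assay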
Chain of Cytochrome P450 2D6 (P10635 whole entry): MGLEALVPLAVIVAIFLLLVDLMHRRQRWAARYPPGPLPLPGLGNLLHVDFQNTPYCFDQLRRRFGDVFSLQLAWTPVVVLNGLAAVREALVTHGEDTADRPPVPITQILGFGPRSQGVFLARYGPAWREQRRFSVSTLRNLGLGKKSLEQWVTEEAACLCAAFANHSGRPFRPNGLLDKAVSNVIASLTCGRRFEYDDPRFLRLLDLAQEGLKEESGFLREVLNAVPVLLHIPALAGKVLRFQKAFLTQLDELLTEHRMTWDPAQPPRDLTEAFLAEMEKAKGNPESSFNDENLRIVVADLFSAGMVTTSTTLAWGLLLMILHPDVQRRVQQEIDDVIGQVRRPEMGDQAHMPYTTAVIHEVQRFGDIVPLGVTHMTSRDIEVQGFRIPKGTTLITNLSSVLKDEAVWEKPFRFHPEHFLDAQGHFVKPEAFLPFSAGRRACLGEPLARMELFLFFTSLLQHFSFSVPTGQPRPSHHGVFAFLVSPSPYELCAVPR

[5] = molecular target: T3, Cytochrome P450 1A2 (Homo sapiens, UniProt P05177);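 note: PubChem cytochrome P450 panel assay, CYP1A2 panel member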
T3 sequence (P05177 whole entry): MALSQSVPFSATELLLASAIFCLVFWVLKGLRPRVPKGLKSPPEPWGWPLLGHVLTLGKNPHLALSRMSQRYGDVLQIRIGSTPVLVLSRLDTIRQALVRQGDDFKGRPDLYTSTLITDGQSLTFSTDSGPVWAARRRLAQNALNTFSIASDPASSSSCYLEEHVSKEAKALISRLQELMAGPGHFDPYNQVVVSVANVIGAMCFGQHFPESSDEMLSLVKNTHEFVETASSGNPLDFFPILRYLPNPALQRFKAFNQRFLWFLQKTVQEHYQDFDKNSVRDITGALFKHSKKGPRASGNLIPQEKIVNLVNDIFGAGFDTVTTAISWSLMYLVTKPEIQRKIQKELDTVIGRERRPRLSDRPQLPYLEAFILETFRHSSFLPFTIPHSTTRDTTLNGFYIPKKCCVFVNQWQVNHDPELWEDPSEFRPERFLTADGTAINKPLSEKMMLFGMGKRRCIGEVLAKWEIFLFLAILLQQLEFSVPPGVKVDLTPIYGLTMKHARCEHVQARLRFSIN

[6] = molecular target: Cytochrome P450 3A4 (Homo sapiens, UniProt P08684);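 note: CYP3A4 tested as one member of a cytochrome P450 panel screen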
Chain of Cytochrome P450 3A4 (P08684 whole entry): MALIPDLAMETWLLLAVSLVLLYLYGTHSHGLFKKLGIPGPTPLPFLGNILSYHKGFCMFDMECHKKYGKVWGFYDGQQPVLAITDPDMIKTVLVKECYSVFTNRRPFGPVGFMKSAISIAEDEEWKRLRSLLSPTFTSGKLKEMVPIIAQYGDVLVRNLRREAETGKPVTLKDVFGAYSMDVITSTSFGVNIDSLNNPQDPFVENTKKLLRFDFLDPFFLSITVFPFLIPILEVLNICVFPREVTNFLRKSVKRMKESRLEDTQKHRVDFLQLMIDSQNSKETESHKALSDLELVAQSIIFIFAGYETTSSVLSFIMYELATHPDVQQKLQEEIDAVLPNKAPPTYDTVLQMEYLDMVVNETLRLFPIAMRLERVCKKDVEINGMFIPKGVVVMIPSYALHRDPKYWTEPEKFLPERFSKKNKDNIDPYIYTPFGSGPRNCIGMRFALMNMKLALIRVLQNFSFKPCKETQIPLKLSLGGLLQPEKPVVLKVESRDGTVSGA

[7] = molecular target: Cytochrome P450 2C19 (Homo sapiens, UniProt P33261); assay: Cytochrome panel assay with activity outcomes. Panel member name: p450-cyp2c19 Compounds with AC50 equal or less than 10 uM are considered active; assay type: functional; details: read-out: AC50
Chain of Cytochrome P450 2C19 (P33261 whole entry): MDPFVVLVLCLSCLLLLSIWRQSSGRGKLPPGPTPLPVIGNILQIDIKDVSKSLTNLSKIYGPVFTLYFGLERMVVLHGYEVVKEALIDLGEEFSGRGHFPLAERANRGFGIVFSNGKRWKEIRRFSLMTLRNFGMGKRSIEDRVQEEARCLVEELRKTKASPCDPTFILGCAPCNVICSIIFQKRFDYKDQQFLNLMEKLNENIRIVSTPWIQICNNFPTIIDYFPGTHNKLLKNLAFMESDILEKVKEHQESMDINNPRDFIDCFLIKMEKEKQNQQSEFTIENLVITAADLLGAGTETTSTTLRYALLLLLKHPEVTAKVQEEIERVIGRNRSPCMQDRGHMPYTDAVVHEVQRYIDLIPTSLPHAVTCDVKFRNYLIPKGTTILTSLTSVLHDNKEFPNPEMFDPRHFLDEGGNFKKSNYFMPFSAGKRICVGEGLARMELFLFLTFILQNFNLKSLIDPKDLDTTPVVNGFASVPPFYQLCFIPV

[8] = cells; assay type: functional, cell-based
[9] = molecular target: Cytochrome P450 2C9 (Homo sapiens, UniProt P11712)
Chain of Cytochrome P450 2C9 (P11712 whole entry): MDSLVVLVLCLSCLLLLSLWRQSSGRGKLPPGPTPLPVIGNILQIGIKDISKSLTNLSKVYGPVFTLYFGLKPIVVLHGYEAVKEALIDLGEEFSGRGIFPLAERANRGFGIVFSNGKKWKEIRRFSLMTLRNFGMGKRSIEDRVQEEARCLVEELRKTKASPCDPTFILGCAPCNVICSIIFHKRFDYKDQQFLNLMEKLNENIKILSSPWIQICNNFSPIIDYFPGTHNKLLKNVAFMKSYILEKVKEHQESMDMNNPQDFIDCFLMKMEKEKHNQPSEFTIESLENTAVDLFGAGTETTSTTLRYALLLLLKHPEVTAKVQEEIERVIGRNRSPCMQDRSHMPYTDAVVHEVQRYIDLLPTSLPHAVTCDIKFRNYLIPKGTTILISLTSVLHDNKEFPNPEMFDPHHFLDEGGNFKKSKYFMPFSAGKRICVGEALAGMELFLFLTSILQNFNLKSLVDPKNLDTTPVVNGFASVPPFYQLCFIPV

[10] = molecular target: T4, Streptokinase A (Streptococcus pyogenes serotype M1, UniProt P10520); assay: viability-normalized secreted streptokinase activity reduction – plasminogen activation absorbance, OD405, dose response (AID 1914); assay type: functional, Streptococcus pyogenes M1 GAS;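 note: secreted streptokinase activity via plasminogen activation per viability signal from cell pellet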
T4 sequence (P10520 whole entry): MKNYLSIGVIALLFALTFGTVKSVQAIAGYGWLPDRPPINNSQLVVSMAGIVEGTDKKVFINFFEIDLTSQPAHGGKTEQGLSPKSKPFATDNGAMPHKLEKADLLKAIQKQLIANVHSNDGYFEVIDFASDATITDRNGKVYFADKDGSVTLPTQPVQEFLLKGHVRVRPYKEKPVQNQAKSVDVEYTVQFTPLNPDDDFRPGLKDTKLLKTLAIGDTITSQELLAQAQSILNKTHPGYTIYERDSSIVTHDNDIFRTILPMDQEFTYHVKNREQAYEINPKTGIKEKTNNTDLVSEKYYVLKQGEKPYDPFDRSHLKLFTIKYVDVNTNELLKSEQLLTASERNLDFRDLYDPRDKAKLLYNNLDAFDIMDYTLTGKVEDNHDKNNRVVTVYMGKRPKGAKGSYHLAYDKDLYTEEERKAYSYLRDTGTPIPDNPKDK

## Cc1cc(-n2nnc3ccccc32)nc2ccccc12
[1]
  CC50: 19.1 µM (active)

## Cc1nn(-c2ccccc2)c2c1C(c1ccc(F)cc1)C(C#N)=C(N)O2 (configuration not stated)
[2]
  AC50: 3.55 µM (active)
[3]
  EC50: 2.93 µM (active)

## CC(=O)C1=C(O)[C@@H]2[C@@H]3c4c[nH]c5cccc(c45)C[C@@H]3C(C)(C)N2C1=O
[4]
  AC50: 39.8 µM (inconclusive)
[5]
  AC50: 12.6 µM (inconclusive)
[6]
  AC50: 10 µM (inconclusive)

## Cc1ncsc1C(=O)N1N=C2/C(=C/c3ccccc3)CCCC2C1c1ccccc1 (configuration not stated)
[7]
  AC50: 17.8 µM (inconclusive)
[5]
  AC50: 17.8 µM (inconclusive)

## Cc1ccc(Nc2nc(Cl)c(C=O)s2)cc1Cl
[1]
  CC50: 19.2 µM (active)

## CC(Oc1ccc2c3c(c(=O)oc2c1)CCCC3)C(=O)NCC(O)c1ccccc1 (configuration not stated)
[8]
  EC50: > 350 µM (not active)

## CCOC(=O)c1c(C)[nH]c(C(=O)/C(C#N)=C/c2ccc(OC)c(OC)c2)c1C
[1]
  CC50: > 50 µM (active)

## Nc1nc(Cl)cc(N2CCOCC2)n1
[4]
  AC50: 39.8 µM (inconclusive)
[5]
  AC50: 15.8 µM (inconclusive)

## CC(C)C(NC(=O)C1CCCCC1)C(=O)NC1CCN(Cc2ccccc2)CC1 (configuration not stated)
[7]
  AC50: 3.55 µM (inconclusive)

## CCN1C=C(Cc2ccccc2C)C2=C(C1)C(c1ccccc1C)C(C#N)=C(N)O2 (configuration not stated)
[1]
  CC50: 13.1 µM (active)

## COc1ccc(-c2nc3n(c2Br)CCC3)cc1
[1]
  CC50: 30.9 µM (active)

## CCOc1ccc(CNc2ccc(CNc3nc[nH]n3)cc2)cc1
[1]
  CC50: 18 µM (active)

## C=CCn1c(SCC(=O)Nc2ncc(Cc3ccc(Br)cc3)s2)nnc1-c1ccncc1
[7]
  AC50: 2.82 µM (inconclusive)

## NC(=O)CNC(=O)[C@@H]1CC2(CC(c3cccc([N+](=O)[O-])c3)=NO2)CN1C(=O)c1ccccc1 (some centres not stated)
[4]
  AC50: 31.6 µM (inconclusive)
[9]
  AC50: 0.708 µM (inconclusive)

## COc1ccc(NC(=O)CSc2nc3cc[nH]cc-3n2)c(OC)c1
[1]
  CC50: 33.1 µM (active)

## COc1cc(C(=O)NCC(c2cccnc2)N2CCN(C)CC2)cc(OC)c1OC (configuration not stated)
[7]
  AC50: 39.8 µM (inconclusive)

## N#Cc1cccc(-c2ccc3ncnc(NCc4ccccc4)c3c2)c1
[4]
  AC50: 10 µM (inconclusive)
[6]
  AC50: 15.8 µM (inconclusive)
[9]
  AC50: 0.631 µM (inconclusive)

## COC(=O)Cn1c(C(=O)N(C)C)cc2c1C[C@H]1CN(C(=O)c3ccccc3)[C@@](Cc3ccc(OC)cc3)(C(=O)OC)[C@@H]21
[7]
  AC50: 20 µM (inconclusive)
[9]
  AC50: 12.6 µM (inconclusive)

## N=C(NOC(=O)Cc1ccc(Cl)cc1)c1cccnc1
[4]
  AC50: 6.31 µM (inconclusive)
[9]
  AC50: 12.6 µM (inconclusive)

## CNc1ncncc1-c1ccccc1C
[4]
  AC50: 31.6 µM (inconclusive)
[5]
  AC50: 12.6 µM (inconclusive)

## COc1ccc(OC)c(N2C(=O)C(Cl)=C(N3CCCCC3)C2=O)c1
[2]
  AC50: 11.8 µM (active)
[3]
  EC50: 4.67 µM (active)

## Cc1ccc(NC(=O)CN2C(=O)NC(C)(c3ccc(Cl)cc3)C2=O)c(Br)c1 (configuration not stated)
[1]
  CC50: 30.1 µM (active)

## O=C(CN1C(=O)NC2(CCCCCC2)C1=O)N1CCN(S(=O)(=O)c2ccc(Cl)cc2)CC1
[7]
  AC50: 20 µM (inconclusive)
[9]
  AC50: 17.8 µM (inconclusive)

## Cc1nn(Cc2ccc([N+](=O)[O-])cc2)c(=O)n1-c1cccc(F)c1
[4]
  AC50: 25.1 µM (inconclusive)
[5]
  AC50: 17.8 µM (inconclusive)

## Cc1n[nH]c2c1C(c1ccsc1C)C(C#N)=C(N)O2 (configuration not stated)
[2]
  AC50: 10.1 µM (active)
[3]
  EC50: 3.77 µM (active)

## O=C1c2[nH]nc(-c3ccccc3O)c2C(c2cccc(Cl)c2)N1Cc1ccco1 (configuration not stated)
[10]
  EC50: 15.8 µM (active)
[2]
  AC50: 66.5 µM (active)
[3]
  EC50: > 380 µM (inconclusive)

## Cc1ccc(-n2nnc3c(SCC(=O)NCC4CCCO4)ncnc32)cc1 (configuration not stated)
[2]
  AC50: 4.72 µM (active)
[3]
  EC50: 4.23 µM (active)

## CC12CC(NC(=O)N1c1cccc(C(=O)NCc3ccccc3)c1)c1ccccc1O2 (configuration not stated)
[4]
  AC50: 28.2 µM (inconclusive)
[5]
  AC50: 25.1 µM (inconclusive)

## O=C(CCl)Nc1ccc(N=Nc2ccccc2)cc1
[2]
  AC50: 6.81 µM (active)
[3]
  EC50: 2.18 µM (active)

## COc1ccc(-n2c(C)cc(C=O)c2C)cc1Cl
[7]
  AC50: 3.98 µM (inconclusive)
[5]
  AC50: 14.1 µM (inconclusive)
[9]
  AC50: 17.8 µM (inconclusive)

## CCOc1c2ccc(C(=O)NCc3ccc4c(c3)OCO4)cc2nn1CC
[4]
  AC50: 15.8 µM (inconclusive)
[5]
  AC50: 8.91 µM (inconclusive)

## Cc1n[nH]c2c1C(c1cccc(OC(=O)N3CCOCC3)c1)C(C#N)=C(N)O2 (configuration not stated)
[2]
  AC50: 31.2 µM (active)
[3]
  EC50: 7.44 µM (active)

## CCc1cc2c(c(CC)n1)CCC(=O)N2Cc1ccc(-c2ccccc2-c2nnn[nH]2)cc1
[4]
  AC50: 10 µM (inconclusive)
[6]
  AC50: 20 µM (inconclusive)
[9]
  AC50: 25.1 µM (inconclusive)

## O=c1c(-c2cccs2)nc2cnc(Oc3ccccc3)nc2n1C1CC1
[7]
  AC50: 1.58 µM (inconclusive)

## COc1ccc(C2C(C#N)=C(N)Oc3[nH]nc(C)c32)cc1Cn1nnc2ccccc21 (configuration not stated)
[2]
  AC50: 7.76 µM (active)
[3]
  EC50: 3.87 µM (active)

## CCOC(=O)CN1C(=O)N[C@@H](c2cccc(C(F)(F)F)c2)C(C(C)=O)=C1C
[2]
  AC50: > 380 µM (inactive)
[3]
  EC50: > 380 µM (inactive)

## N#CCCn1[nH]c(-c2ccccc2)cc1=O
[2]
  AC50: 5.47 µM (active)
[3]
  EC50: 3.32 µM (active)

## O=C(c1ccccc1)N1CCCC(c2ccc(Cl)cc2)=N1
[1]
  CC50: 42.4 µM (active)
